In US20100129418A1, “METHOD OF INDUCING NEGATIVE CHEMOTAXIS USING AN ELLAGITANNIN OR GALLOTANNIN” (priority 2008, published 2010) one finds fold induction data, which are given here for one compound.

For this experiment, the system named is neutrophils. In words: Chemorepulsion/chemoattraction transwell migration assay (Neuroprobe ChemoTx plates). In kind it is cell-based. The conditions noted are these: Homo sapiens, Neutrophil, 1 h, 1.1 mg/ml ellagic acid, CR mode, 1 hour at 37° C., read-out: fold induction of chemorepulsion as compared to media. The method, then:
The chemorepulsive activity of ellagic acid was determined as follows: • 1. Prior to beginning the assay, the following were prepared: • a. 0.5% Fetal Calf Serum (FCS) in Iscove's Modified Dulbecco's Medium (IMDM) (Assay Medium) (Both from ATCC). • b. Migratory cells at a concentration of 2×10^7 cells/ml in Assay Medium. • c. The indicated dilutions of ellagic acid Assay Medium. • 2. The assay plates were Neuroprobe ChemoTx plates, part number 206-3 (3 um pore size) for neutrophils. • 3. The plates were removed from packaging, leaving the membrane behind. • 4. 31 μl of the following solutions were pipetted into each well: • a. For media controls and for chemorepulsion samples, Assay Medium was used. • b. For chemoattraction samples, appropriate dilution of ligand was used. • 5. The membrane was carefully placed onto the plate, starting at one side and then slowly lowering the other edge onto the plate. • 6. 29 μl of the following were pipetted onto the top of each circle: • a. For media controls and chemoattraction samples, Assay Medium was used. • b. For chemorepulsion samples, the appropriate dilution of ligand was used. • 7. […] The assay plates were processed by Guava Easy Cyte Plus (using via cell count for read out). • 1. […] The Guava Easy Cyte Plus was used to read the plate and quantify the number of migrated cells. […]

`O=c1oc2c(O)c(O)cc3c(=O)oc4c(O)c(O)cc1c4c23` [ellagic acid, 2,3,7,8-tetrahydroxy-chromeno[5,4,3-cde]chromene-5,10-dione]: the fold induction at 1100 µg/mL is roughly 55.
